{"source": "patent US10450549B2", "about": "“Aryloxyphenoxypropionate tolerance in turfrgass species and use of AAD1 as a selectable marker” (Dow AgroSciences, LLC, priority 2004, dated 2019)", "key": {"[1]": {"test_system": "AAD1 (v3)-transformed T1 Arabidopsis", "assay": "T1 Arabidopsis response to postemergence herbicide (2,4-D, dichlorprop, haloxyfop, fluroxypyr), % visual injury 2 WAT: AAD1 (v3) transformants", "assay_type": "in vivo, Arabidopsis thaliana", "details": "for % Injury Ave / individuals with 20-40% injury / individuals with <20% injury / individuals with >40% injury: Rebuilt AAD1 (v3) gene, 2 WAT", "protocol": "Freshly harvested T1 seed (transformed with native [AAD1 (v2)] or plant optimized [AAD1 (v3)] gene) was allowed to dry for 7 days at room temperature. T1 seed was sown in 26.5×51-cm germination trays (T.O. Plastics Inc., Clearwater, Minn.), each receiving a 200 mg aliquots of stratified T1 seed (˜10,000 seed) that had previously been suspended in 40 ml of 0.1% agarose solution and stored at 4° C. for 2 days to complete dormancy requirements and ensure synchronous seed germination.\nSunshine Mix LP5 (Sun Gro Horticulture Inc., Bellevue, Wash.) was covered with fine vermiculite and subirrigated with Hoagland's solution until wet, then allowed to gravity drain. Each 40 ml aliquot of stratified seed was sown evenly onto the vermiculite with a pipette and covered with humidity domes (KORD Products, Bramalea, Ontario, Canada) for 4-5 days. Domes were removed 1 day prior to initial transformant selection using glufosinate postemergence spray (selecting for the co-transformed PAT gene).\nFive to six days after planting (DAP) and again 10 DAP, T1 plants (cotyledon and 2-4-1f stage, respectively) were sprayed with a 0.2% solution of Liberty herbicide (200 g ai/L glufosinate, Bayer Crop Sciences, Kansas City, Mo.) at a spray volume of 10 ml/tray (703 L/ha) using a DeVilbiss compressed air spray tip to deliver an effective rate of 280 g ai/ha glufosinate per application. Survivors (plants actively growing) were identified 5-7 days after the final spraying and transplanted individually into 3-inch pots prepared with potting media (Metro Mix 360). Transplanted plants were covered with humidity domes for 3-4 days and placed in a 22° C. growth chamber as before. Domes were subsequently removed and plants moved to the greenhouse (22+5° C., 50+30% RH, 14 h light:10 dark, minimum 500 μE/m^2s^1 natural+supplemental light) at least 1 day prior to testing for the ability of AAD1 (v3) (plant optimized gene) or AAD1 (v2) (native microbial gene) to provide phenoxy auxin herbicide resistance.\n(§1) Random individual T1 plants selected for glufosinate resistance above were confirmed for expression of the PAT protein using a PAT ELISA kit (Part no. 7000045, Strategic Diagnostics, Inc., Newark, Del.) to non-destructively confirm fidelity of selection process (manufacturer's protocol). Plants were then randomly assigned to various rates of phenoxy herbicides (dichlorprop or 2,4-D). […] Elevated rates were applied in subsequent trials (50, 200, 800, or 3200 g ae/ha).\n(§2) All auxin herbicide applications were made using the DeVilbiss sprayer as described above to apply 703 L/ha spray volume (0.4 ml solution/3-inch pot) or applied by track sprayer in a 187 L/ha spray volume. […] Dichlorprop used was technical grade (Sigma, St. Louis, Mo.) dissolved in DMSO and diluted in water (<1% DMSO final concentration). As herbicide rates increased beyond 800 g ae/ha, the pH of the spray solution became exceedingly acidic, burning the leaves of young, tender Arabidopsis plants and complicating evaluation of the primary effects of the herbicides. It became standard practice to apply these high rates of phenoxy herbicides in 200 mM Tris buffer (pH 9.0) to a final pH of ˜7-8.\n(§3) Although Arabidopsis, being a dicot, is not an optimal system for testing ACCase-inhibiting AOPP grass herbicides, AAD1 (v3)-transformed T1 plants were subjected to elevated rates (400-1600 g ae/ha) of RS-haloxyfop acid (internally synthesized) that do cause growth abnormalities and death of wildtype Arabidopsis using the DeVilbiss sprayer as described above. Injury ratings were taken 7 and 14 days after treatment. Likewise, T1 individuals were treated with the pyridyloxyacetate auxin herbicide, fluroxypyr.\nTable 16. […] Response is presented in terms of % visual injury 2 WAT. […] Since each T1 is an independent transformation event, one can expect significant variation of individual T1 responses within a given rate. An arithmetic mean and standard deviation is presented for each treatment. […]"}, "[2]": {"test_system": "Wildtype Arabidopsis", "assay": "T1 Arabidopsis spray test, % visual injury 2 WAT: wildtype control", "assay_type": "in vivo, Arabidopsis thaliana", "details": "for % Injury Ave / individuals with 20-40% injury / individuals with <20% injury / individuals with >40% injury: Wildtype, 2 WAT", "text": "as §1, §2, §3\nTable 16. […] Response is presented in terms of % visual injury 2 WAT. […] Since each T1 is an independent transformation event, one can expect significant variation of individual T1 responses within a given rate. An arithmetic mean and standard deviation is presented for each treatment. The range in individual response is also indicated in the last column for each rate and transformation. PAT/Cry1F-transformed Arabidopsis served as an auxin-sensitive transformed control. Wildtype Arabidopsis is untransformed.\n(§4) Table 17. T1 Arabidopsis response to a range of dichlroprop rates applied postemergence. Response is presented in terms of % visual injury 2 WAT. […] Since each T1 is an independent transformation event, one can expect significant variation of individual T1 responses within a given rate. An arithmetic mean and standard deviation is presented for each treatment. The range in individual response is also indicated in the last column for each rate and transformation. PAT/Cry1F-transformed Arabidopsis served as an auxin-sensitive transformed control. Wildtype Arabidopsis is untransformed.\nas §4, with “18.” for “17.”, “haloxyfop” for “dichlroprop”, “postemergence at artificially high rates attempting to show tolerance of the dicot Arabidopsis to the graminicide.” for “postemergence.”"}, "[3]": {"test_system": "Arabidopsis thaliana var. Columbia", "assay": "Arabidopsis plate test bioassay for herbicide degradation", "assay_type": "in vivo", "details": "for IC50: 168 h"}}, "note": "Where two headings read alike, the source gives them in different places."}
{"smiles": "O=C(O)COc1ccc(Cl)cc1Cl", "note": "[2,4-D, 2,4-dichlorophenoxyacetic acid]", "values": [{"measurement": "injury of some AAD1 (v3) T1 individuals", "setting": "[1]; 3,200 g ae/ha", "result": "little or no injury"}, {"measurement": "T1 plants uninjured", "setting": "[1]; AAD1 (v3), 200 g ae/ha", "result": "> 73", "unit": "%"}, {"measurement": "% Injury Ave", "setting": "[1]; 50 g ae/ha", "result": 24.3, "unit": "%"}, {"measurement": "individuals with 20-40% injury", "setting": "[1]; 50 g ae/ha", "result": 1}, {"measurement": "individuals with <20% injury", "setting": "[1]; 50 g ae/ha", "result": 10}, {"measurement": "individuals with >40% injury", "setting": "[1]; 50 g ae/ha", "result": 5}, {"measurement": "% Injury Ave", "setting": "[1]; 200 g ae/ha", "result": 14, "unit": "%"}, {"measurement": "individuals with 20-40% injury", "setting": "[1]; 200 g ae/ha", "result": 4}, {"measurement": "individuals with <20% injury", "setting": "[1]; 200 g ae/ha", "result": 11}, {"measurement": "individuals with >40% injury", "setting": "[1]; 200 g ae/ha", "result": 1}, {"measurement": "% Injury Ave", "setting": "[1]; 800 g ae/ha", "result": 14.7, "unit": "%"}, {"measurement": "individuals with 20-40% injury", "setting": "[1]; 800 g ae/ha", "result": 4}, {"measurement": "individuals with <20% injury", "setting": "[1]; 800 g ae/ha", "result": 11}, {"measurement": "individuals with >40% injury", "setting": "[1]; 800 g ae/ha", "result": 1}, {"measurement": "% Injury Ave", "setting": "[2]; 50 g ae/ha", "result": 90.0, "unit": "%"}, {"measurement": "individuals with 20-40% injury", "setting": "[2]; 50 g ae/ha", "result": 0}, {"measurement": "individuals with <20% injury", "setting": "[2]; 50 g ae/ha", "result": 0}, {"measurement": "individuals with >40% injury", "setting": "[2]; 50 g ae/ha", "result": 15}, {"measurement": "% Injury Ave", "setting": "[2]; 200 g ae/ha", "result": 95.1, "unit": "%"}, {"measurement": "individuals with 20-40% injury", "setting": "[2]; 200 g ae/ha", "result": 0}, {"measurement": "individuals with <20% injury", "setting": "[2]; 200 g ae/ha", "result": 0}, {"measurement": "individuals with >40% injury", "setting": "[2]; 200 g ae/ha", "result": 15}, {"measurement": "% Injury Ave", "setting": "[2]; 800 g ae/ha", "result": 100.0, "unit": "%"}, {"measurement": "individuals with 20-40% injury", "setting": "[2]; 800 g ae/ha", "result": 0}, {"measurement": "individuals with <20% injury", "setting": "[2]; 800 g ae/ha", "result": 0}, {"measurement": "individuals with >40% injury", "setting": "[2]; 800 g ae/ha", "result": 15}, {"measurement": "GR99 for Arabidopsis", "setting": "[2]; postemergence spray", "result": "about 50 g ae/ha"}, {"measurement": "IC50", "setting": "[3]; Arabidopsis thaliana, read-out: GR50, Chemical + AAD1 v1", "result": 0.267, "unit": "µM"}, {"measurement": "IC50", "setting": "[3]; Arabidopsis thaliana, read-out: GR50, Chemical alone", "result": 0.022, "unit": "µM"}, {"measurement": "IC50", "setting": "[3]; Escherichia coli, in Arabidopsis thaliana, read-out: GR50, Chemical + Blank Vector", "result": 0.017, "unit": "µM"}, {"measurement": "herbicidal activity after AAD1 (v1) treatment, Arabidopsis plate assay", "setting": "[3]; unpurified recombinant AAD1 (v1) extract", "result": "almost complete loss"}]}
